Read-outs that look alike come from different tables or passages of the source. Marks after values point to notes of the source that are not given here.
Experiments:
[1] = system: PC-3 cells; assay: Radiosensitization of cells in culture (Cobalt 60, clonogenic survival); type: cell-based, human; conditions: for effect of tetrahydrouridine (H4U) on radiosensitization (in words) / effect of thymidine on radiosensitization (in words): cells in culture
Experimental: (§1) Toxicity and Radiation Studies: The methods using clonogenic assays described by Perez and Greer (Int. J. Rad. Oncology: Biology, Physics 12, 1523-1527, 1986—incorporated herein by reference in its entirety) were followed.
Irradiation of Cells in Culture: 2×10^5 cells were plated in 25 cm^2 flasks and grown for 18 hr at 37° C. in a humidified 5% CO2 atmosphere. The medium was then removed and replaced with medium containing the appropriate drug concentrations and incubated for 72 hrs then removed and the cell monolayers were rinsed twice with PBS. The flasks were then filled with 50 ml of radiation medium (3 parts RPMI 1640 and 7 parts PBS plus antibiotics and glutamine). The cells were then irradiated using a Cobalt 60 irradiator. The cell monolayers were placed 35 cm away from the source and irradiated for appropriate times according to the dose rate. The dose rate was calculated, at this distance, using ionization chambers. Attenuation factors due to the polystyrene flask (0.9923) and the medium (H2O=0.8715) were considered in calculating the exposure period.
After irradiation the cell monolayers were washed again, replenished with growth media, and incubated for 1½ hours. The cell monolayers were then trypsinized and the cells serially diluted, appropriate dilutions were then plated in 60 mm dishes and incubated for 7-9 days at 37° C. and CO2. At the end of this period the cells were stained with crystal violet and the colony forming ability determined by considering 25 or more normal cells as a viable colony. The viabilities were determined and the appropriate survival curves derived. All conditions were done in duplicate using two flasks treated under identical conditions.

[2] = molecular target: T1, cytidine deaminase (CD) (Homo sapiens, UniProt P32320); assay: Competition assay for substrates of cytidine deaminase, crude extracts of PC-3 cells; type: biochemical; conditions: for substrate for cytidine deaminase (in words): competition studies, human tumor cell extracts; for % Inhibition (CD) / inhibition at 250 µM: competitor 250 μM; for % Inhibition (CD) / inhibition / inhibition at 250 µM: ratio 10, PC-3 extracts
T1 construct: Crude extracts of PC-3 cells in culture were prepared as described above; endogenous in cells; host or cells: PC-3 cells (crude extract supernatant)
T1 sequence (P32320 whole entry): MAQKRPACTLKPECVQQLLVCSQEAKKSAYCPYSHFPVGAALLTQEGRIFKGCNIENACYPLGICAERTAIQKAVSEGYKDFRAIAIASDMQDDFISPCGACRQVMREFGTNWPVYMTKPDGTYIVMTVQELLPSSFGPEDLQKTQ
Experimental: The crude enzyme extract (the supernatant of a 10 minute 14,000×g centrifugation) was then added. When cytidine was used as substrate, assays were conducted with benzacyclouridine to inhibit uridine phosphorylases. […] After 0, 15, and 30 minutes, the reaction was stopped and denatured protein removed as above for dC Kinase. […] Aliquots were then spotted on PE cellulose TLC sheets and the reactants separated with a solvent system composed of isopropanol:HCl:H2O (170:41:39). […] The nucleosides were visualized under U.V. light and the spots cut out and counted. […] Enzyme activity was expressed as nmole formed in 30 min/mg/protein.
Competition assays to determine Substrate Specificity: Crude extracts of PC-3 cells in culture were prepared as described above. Two concentrations of crude extract were utilized for the studies as determined from the analysis of protein.
The assays were run for 0, 15, and 30 minutes.

[3] = system: PC-3 cells; assay: Cytotoxicity (clonogenic) assay, 72 h drug exposure; type: cell-based, human
Experimental: as §1
Cytotoxicity Assays: 5×10^5 cells were plated in 60 mm tissue culture dishes in 5 mls of the optimal growth media for the particular cell line in an humidified 95% air-5% CO2 atmosphere. The plates were incubated for 18-20 hours to allow for attachment and log-phase growth to begin. At the end of this period the growth medium was aspirated and replaced with […]. Four times (4×) concentrated solutions were prepared and then 1 ml was added to the plates; and growth media were then added to a total volume of […]. The plates were then incubated for 72 hours and the cells harvested by trypsinization. The cells were then serially diluted in growth medium replated into 60 mm dishes and incubated for 6 to 9 days depending on the cell line. After this incubation period, the media was aspirated and the colonies were washed twice with a PBS solution. The colonies were then stained with a 0.2% crystal violet-20% ethanol solution for 5 min. the stain was removed, the colonies were washed and air dried. A viable colony was one consisting of 25 or more normal appearing cells and was considered to have arisen from a single cell. The colonies were counted under a dissecting microscope. Two to three dilutions for every condition were plated. Dishes containing 30-300 colonies were used in the calculation and all conditions were done in duplicate.

[4] = system: uridine/cytidine kinase; assay: Competition assay for substrates of uridine/cytidine kinase, crude extracts of T24 cells; type: biochemical, human
Experimental: 2 mM dithiothreitol (DTT) and 0.5 mM phenylmethylsulfanyl fluoride were added just before extraction. The tissue sample was homogenized in a Dounce glass homogenizer and then sonicated for 3 five-second pulses in a Branson Sonifier with a micro-tip at 25 KHz to disrupt the cells. During homogenization and sonication the extract was kept cold throughout the procedures. The tissue extract was then centrifuged at 14,000×g at 4° C. for 15 min., and the supernatant (the crude enzyme extract) was removed. The supernatant was sheared 20 times on ice utilizing a 1 cc syringe with a 27 G½ needle to reduce viscosity. […] 2 mM DTT and 340 μM H4U were added just before the assay. Finally, to the reaction mixture, 5 μl 200 mM creatine phosphate and creatine phosphokinase (0.5 unit/μl) was added to 150 μl of the section mixture. […] H2O bath for 1 minute before 20 μl of the crude enzyme extract was added to initiate the reaction. […] At 0, 30 and 60 minutes the reaction mixture, divided in separate tubes, was heated in a boiling water bath for 2 minutes to terminate the reaction. Denatured protein was then removed by centrifugation of the sample for 2 minutes at 14,000×g. The amount of nucleotide formed was determined by spotting 20 μl aliquots of the reaction mixture onto DE-81 2.2 cm Whatman filter discs. After air drying, the unphosphorylated substrate nucleoside was removed by washing twice for 10 min. in 20 mM ammonium formate and twice for 5 min. in deionized H2O with gentle stirring. A control, lacking the crude enzyme extract was included with each determination. The washed papers were dried under a heat lamp and then placed into individual scintillation vials, eluted for 30 min. in 1 ml of 0.1M HCl-0.1M KCL and then vortexed in 5 ml of scintillation fluid and counted. Enzyme activity was expressed as pmoles/min/mg protein.
When uridine was utilized as substrate, benzacyclouridine was added to prevent the catabolism of the substrate by uridine phosphorylase and tetrahydrouridine was omitted.

[5] = molecular target: deoxycytidine kinase (dCK) (Homo sapiens, UniProt P27707); assay: Competition assay for substrates of deoxycytidine kinase, crude extracts of PC-3 cells; conditions: for inhibition at 250 µM: read-out: % Inhibition (dCK)
Chain of deoxycytidine kinase (dCK) (P27707 whole entry): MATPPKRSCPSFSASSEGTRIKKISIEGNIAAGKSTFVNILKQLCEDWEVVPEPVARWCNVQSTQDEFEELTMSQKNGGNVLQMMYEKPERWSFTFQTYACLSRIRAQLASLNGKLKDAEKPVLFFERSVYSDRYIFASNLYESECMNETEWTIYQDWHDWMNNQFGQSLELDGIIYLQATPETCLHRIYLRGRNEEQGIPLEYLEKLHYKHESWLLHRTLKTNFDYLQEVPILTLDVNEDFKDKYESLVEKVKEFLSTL

[6] = substrate 3H-Deoxycytidine 25 μM
[7] = competitor 100 μM, substrate 3H-Cytidine 8.3 μM
[8] = competitor 100 μM, substrate 3H-Uridine 16.7 μM
[9] = competitor 250 μM, substrate 3H-Cytidine 8.3 μM
[10] = competitor 250 μM, substrate 3H-Uridine 16.7 μM
[11] = competitor 500 μM, substrate 3H-Cytidine 8.3 μM
[12] = competitor 500 μM, substrate 3H-Uridine 16.7 μM
[13] = competitor 750 μM, substrate 3H-Uridine 16.7 μM

CNc1nc(=O)n([C@H]2C[C@H](O)[C@@H](CO)O2)cc1Cl [4-N,methylamino CldC, 4-N, methylamino-5-Chloro-2′-deoxycytidine]
radiosensitization of PC-3 cells (in words) [1]: potent radiosensitizing effect
effect of tetrahydrouridine (H4U) on radiosensitization (in words) [1]: antagonism by tetrahydrouridine
effect of thymidine on radiosensitization (in words) [1]: antagonized by thymidine
substrate for cytidine deaminase (in words) [2]: reasonably good substrate
% Inhibition (CD) ([2]; substrate 3H-Cytidine 25 μM): 13%
% Inhibition (CD) [2, 6]: 29%

CNc1nc(=O)n([C@H]2C[C@H](O)[C@@H](CO)O2)cc1F [4-N,methylamino FdC, 4-N, methylamino-5-Fluoro-2′-deoxycytidine]
effect of thymidine on cytotoxicity (in words) ([3]; PC-3 cells): antagonized by thymidine
effect of tetrahydrouridine (H4U) on cytotoxicity / viability (in words) ([3]; PC-3 cells, listed as 4-N, methylamino FdC): antagonized by tetrahydrouridine
effect of tetrahydrouridine (H4U) on cytotoxicity / viability (in words) ([3]; PC-3 cells, listed as 4N, methylFdC): prevented by tetrahydrouridine
substrate for cytidine deaminase (in words) ([2]; listed as 4-N, methylamino FdC): poor substrate
substrate for cytidine deaminase (in words) ([2]; listed as 4-N, methylamino-5-Fluoro-2′-deoxycytidine): moderate to poor substrate
% Inhibition (CD) ([2]; substrate 3H-Cytidine 25 μM): 0%
% Inhibition (CD) [2, 6]: 4.0%

O=c1[nH]c(=O)n(COCCO)cc1Cc1ccccc1 [5-Benzacyclouridine]
% Inhibitation (U/C kinase) ([4]; competitor 1500 μM, substrate 3H-Cytidine 8.3 μM): 0%
% Inhibitation (U/C kinase) ([4]; competitor 1500 μM, substrate 3H-Uridine 16.7 μM): 7.0%

Nc1nc(=O)n([C@H]2C[C@H](O)[C@@H](CO)O2)cc1Br [5-BrdC, 5-Bromo-2′-deoxycytidine]
effect of thymidine on radiosensitization (in words) [1]: antagonized by thymidine
substrate for deoxycytidine kinase (in words) ([5]; competition studies, human tumor cell extracts): very poor substrates
inhibition at 250 µM [5]: 0%
substrate for cytidine deaminase (in words) [2]: good substrates
inhibition ([2]; substrate 3H-Cytidine 25 μM): 50%

Nc1nc(=O)n([C@@H]2O[C@H](CO)[C@@H](O)[C@H]2O)cc1Cl [5-Chlorocytidine]
radiosensitization of PC-3 cells (in words) [1]: radiosensitization
effect of tetrahydrouridine (H4U) on radiosensitization (in words) [1]: decreases radiosensitization
effect of tetrahydrouridine (H4U) on cytotoxicity / viability (in words) ([3]; human, 72 h): H4U decreases viability
substrate for U/C kinase of T24 cells (in words) [4]: moderate substrates
% Inhibitation (U/C kinase) [4, 7]: 10%
% Inhibitation (U/C kinase) [4, 8]: 2%
% Inhibitation (U/C kinase) [4, 9]: 24%
% Inhibitation (U/C kinase) [4, 10]: 23%

Nc1nc(=O)n([C@H]2C[C@H](O)[C@@H](CO)O2)cc1Cl [5-Chlorodeoxycytidine, 5-chloro-2′-deoxycytidine, reference compound]
inhibition at 250 µM [5]: 72%
inhibition at 250 µM [2, 6]: 42%
inhibition ([2]; substrate 3H-Cytidine 25 μM): 80%
% Inhibitation (U/C kinase) [4, 10]: 0%
% Inhibitation (U/C kinase) [4, 11]: 5.1%

O=c1[nH]c(=O)n([C@H]2C[C@H](O)[C@@H](CO)O2)cc1Cl [5-Chlorodeoxyuridine]
% Inhibitation (U/C kinase) ([4]; competitor 200 μM, substrate 3H-Cytidine 8.3 μM): 7.0%
% Inhibitation (U/C kinase) [4, 10]: 0%

Nc1nc(=O)n([C@@H]2O[C@H](CO)[C@@H](O)[C@H]2O)cc1F [5-Fluorocytidine]
% Inhibitation (U/C kinase) [4, 8]: 34%
% Inhibitation (U/C kinase) [4, 9]: 51%
% Inhibitation (U/C kinase) [4, 10]: 58%
% Inhibitation (U/C kinase) [4, 11]: 66%

Nc1nc(=O)n([C@H]2C[C@H](O)[C@@H](CO)O2)cc1F [5-Fluorodeoxycytidine, reference compound]
inhibition at 250 µM [5]: 90%
inhibition at 250 µM [2, 6]: 50%
inhibition ([2]; substrate 3H-Cytidine 25 μM): 83%
% Inhibitation (U/C kinase) [4, 11]: 4.8%

O=c1[nH]c(=O)n([C@@H]2O[C@H](CO)[C@@H](O)[C@H]2O)cc1F [5-Fluorouridine]
% Inhibitation (U/C kinase) [4, 8]: 56%
% Inhibitation (U/C kinase) [4, 10]: 80%

Cc1cn([C@H]2C[C@H](O)[C@@H](CO)O2)c(=O)nc1N [5-methyldC, reference compound]
% Inhibition (CD) ([2]; substrate 3H-Cytidine 25 μM): 30%

Nc1ccn([C@@H]2O[C@H](CO)[C@@H](O)[C@H]2O)c(=O)n1 [Cytidine]
% Inhibitation (U/C kinase) [4, 7]: 66%
% Inhibitation (U/C kinase) [4, 8]: 57%
% Inhibitation (U/C kinase) [4, 9]: 85%
% Inhibitation (U/C kinase) [4, 10]: 89%
% Inhibitation (U/C kinase) [4, 11]: 88%
% Inhibitation (U/C kinase) [4, 12]: 90%
% Inhibitation (U/C kinase) [4, 13]: 96%

Nc1ccn([C@H]2C[C@H](O)[C@@H](CO)O2)c(=O)n1 [Deoxycytidine]
inhibition at 250 µM [2, 6]: 66%
% Inhibitation (U/C kinase) [4, 9]: 10%
% Inhibitation (U/C kinase) [4, 10]: 0%
% Inhibitation (U/C kinase) [4, 11]: 20%

O=c1ccn([C@H]2C[C@H](O)[C@@H](CO)O2)c(=O)[nH]1 [Deoxyuridine]
% Inhibitation (U/C kinase) [4, 10]: 0** %

O=c1[nH]c(=O)n([C@H]2C[C@H](O)[C@@H](CO)O2)cc1I [IdU, 5-Iododeoxyuridine, reference compound]
effect of tetrahydrouridine (H4U) on radiosensitization (in words) [1]: relative lack of the effect of tetrahydrouridine
effect of tetrahydrouridine (H4U) on cytotoxicity / viability (in words) [3]: relative lack of the effect of tetrahydrouridine

O=c1ccn([C@@H]2O[C@H](CO)[C@@H](O)[C@H]2O)c(=O)[nH]1 [Uridine]
inhibition at 250 µM [5]: 0%
inhibition at 250 µM [2, 6]: 2%
% Inhibitation (U/C kinase) [4, 7]: 59%
% Inhibitation (U/C kinase) [4, 8]: 62%
% Inhibitation (U/C kinase) [4, 9]: 75%
% Inhibitation (U/C kinase) [4, 10]: 80%
% Inhibitation (U/C kinase) [4, 11]: 80%
% Inhibitation (U/C kinase) [4, 12]: 87%
% Inhibitation (U/C kinase) ([4]; competitor 750 μM, substrate 3H-Cytidine 8.3 μM): 86%
% Inhibitation (U/C kinase) [4, 13]: 90%

Source: patent US8252768B2, “Designer therapy of pancreatic tumors” (University of Miami, priority 2006, dated 2012)
